Tests used:
[1] = tested on: EBV-positive HH514-16 Burkitt lymphoma cell line; assay: qPCR of late lytic gene BFRF3; format: cell-based; conditions: HH514-16, varying concentrations, 48 hours, vs DMSO (0.1%), N=3
Description: Cells were harvested, RNA was extracted, RNA was converted to cDNA, and qPCR was performed. Expression of BFRF3, a late lytic gene, is increased (FIG. 2). […] Progression of the lytic cycle to late lytic gene expression indicates availability of the early gene product needed to activate ganciclovir. N=3 biological replicates.

HH514-16 cells = assay: Cell death after exposure; format: cell-based; conditions: 1 μM, 72 hours, vs DMSO (0.1%), N=2
[2] = tested on: EBV-positive HH514-16 Burkitt lymphoma cell line; assay: ZEBRA staining by flow cytometry (EBV lytic reactivation); format: cell-based; conditions: HH514-16, varying concentrations, 24 hours, vs DMSO (0.1%)
Excerpt: Cells were harvested, fixed and permeabilized, stained with a monoclonal antibody to the viral latent-to-lytic switch protein ZEBRA (Bam Z EBV Replication Activator), and examined by flow cytometry. ZEBRA is an early lytic protein of EBV, encoded by BZLF1, that drives the lytic cascade. Cells were stained in parallel with an isotype-matched control antibody for placement of gates.

HDAC2 = HDAC2 (Homo sapiens, UniProt Q92769); assay: ZEBRA flow cytometry in cells overexpressing FLAG-HDAC2; conditions: HH514-16, 1 μM YX968 or 3 mM NaB, 24 hours after treatment, N=3
Chain of HDAC2 (Q92769 whole entry): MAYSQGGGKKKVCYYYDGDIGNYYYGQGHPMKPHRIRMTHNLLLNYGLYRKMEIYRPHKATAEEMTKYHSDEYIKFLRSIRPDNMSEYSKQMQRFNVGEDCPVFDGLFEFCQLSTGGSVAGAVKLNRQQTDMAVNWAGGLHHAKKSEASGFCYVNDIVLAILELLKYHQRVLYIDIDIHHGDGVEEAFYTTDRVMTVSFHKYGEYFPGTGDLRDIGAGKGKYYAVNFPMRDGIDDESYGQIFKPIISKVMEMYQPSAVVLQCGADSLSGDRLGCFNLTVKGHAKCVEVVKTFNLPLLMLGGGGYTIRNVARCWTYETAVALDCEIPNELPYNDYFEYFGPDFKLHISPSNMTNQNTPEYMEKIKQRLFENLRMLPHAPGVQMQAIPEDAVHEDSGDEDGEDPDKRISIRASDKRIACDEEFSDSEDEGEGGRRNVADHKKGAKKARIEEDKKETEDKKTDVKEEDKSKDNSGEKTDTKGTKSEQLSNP

[3] = tested on: lymphoma cell line BC1 latently infected with KSHV; format: cell-based
BZLF1 promoter = assay: H3K27Ac chromatin immunoprecipitation and qPCR at the BZLF1 promoter; conditions: HH514-16, 1 μM, 12 hours, vs DMSO (0.1%)
HDAC1 = HDAC1 (Homo sapiens, UniProt Q13547); assay: ZEBRA flow cytometry in cells overexpressing HDAC1-FLAG; conditions: HH514-16, 1 μM YX968, 24 hours after treatment, N=3
Chain of HDAC1 (Q13547 whole entry): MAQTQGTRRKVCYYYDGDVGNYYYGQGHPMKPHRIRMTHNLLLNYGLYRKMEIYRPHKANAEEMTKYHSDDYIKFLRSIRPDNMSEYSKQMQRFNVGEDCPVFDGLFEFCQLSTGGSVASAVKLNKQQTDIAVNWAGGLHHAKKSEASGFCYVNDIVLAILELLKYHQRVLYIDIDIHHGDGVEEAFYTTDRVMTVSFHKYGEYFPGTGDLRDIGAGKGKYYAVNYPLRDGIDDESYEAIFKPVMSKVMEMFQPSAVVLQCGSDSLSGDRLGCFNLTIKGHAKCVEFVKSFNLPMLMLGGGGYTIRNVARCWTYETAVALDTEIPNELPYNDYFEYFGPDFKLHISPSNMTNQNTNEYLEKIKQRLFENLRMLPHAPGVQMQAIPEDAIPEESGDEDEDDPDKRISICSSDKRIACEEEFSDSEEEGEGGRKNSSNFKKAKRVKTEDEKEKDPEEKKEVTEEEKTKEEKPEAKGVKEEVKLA

EBV = EBV viral load by qPCR for BALF5, normalized to 18S; format: cell-based; conditions: HH514-16, 1 μM YX968 for 18 hours, then ganciclovir 40 μM; vs no ganciclovir, N=2
Description: Ganciclovir was then added at a concentration of 40 μM. Cells were then centrifuged, DNA was extracted, and qPCR for BALF5—a single copy EBV gene—was then used to determine the viral load of EBV in the cells. The ribosomal gene 18S was used as the control to normalize for the number of cells collected. […] N=2 biological replicates.

Compound | expression of BFRF3, a late lytic gene [1] | cells left alive (HH514-16 cells) | levels of ZEBRA (EBV switching to lytic phase) [2] | ZEBRA expression post-induction, HDAC2 overexpressing vs not overexpressing cells (HDAC2) | expression of immediate early gene RTA [3] | amount of acetylated H3K27 at the BZLF1 promoter (fold enrichment vs control IgG) (BZLF1 promoter) | number of cells that expressed ZEBRA, HDAC1 overexpressing (FLAG positive) vs FLAG negative (HDAC1) | viral load of EBV (EBV)
CCCNNC(=O)c1ccc(N2CCN(CCCCCCCC(=O)N[C@H](C(=O)N3C[C@H](O)C[C@H]3C(=O)N[C@@H](C)c3ccc(-c4scnc4C)cc3)C(C)(C)C)CC2)cc1 [YX968] | increased | significantly fewer cells left alive | increased levels of ZEBRA | less likely to express ZEBRA | increases in expression | statistically significant increase | no significant change | 
CCCC(=O)[O-].[Na+] [NaB, sodium butyrate, reference compound] |  |  |  | less likely to express ZEBRA |  |  |  | 
Nc1nc(O)c2ncn(COC(CO)CO)c2n1 [ganciclovir] |  |  |  |  |  |  |  | significantly lower

— patent US20250375441A1, “ONCOLYTIC THERAPY WITH A DUAL HDAC3 AND HDAC8 TARGETING AGENT” (priority 2024, published 2025)
